# According to patent publication US11071701B2, “Medicament and cosmetic composition comprising resorcinol derivatives” (Symrise AG, priority 2016, dated 2021):
# Columns and labels:
# [1] = test system: Human epidermal melanoma cells A375; experiment: Visible light induced hyperpigmentation in vitro (melanin quantification); type: cell-based; conditions: for Inhibition vs. visible light induced / Melanin: visible light 480 J/cm2; for Melanin: treated 48 h prior to and past irradiation; for inhibition of visible light induced hyperpigmentation (in words): summary of Table 1
# Method: Human epidermal melanoma cells A375 were cultured in 6-well plates. The cells were exposed to visible light (480 J/cm2) with Hydrosun 750 equipped with KG1 filter. 48 h prior to and past to the irradiation the cells were treated with test compounds in non-cytotoxic concentrations. Melanocytes were lysed in a solution of NaOH. Melanin was quantified by measurement of absorbance at 405 nm and calculation based on a melanin standard curve.
# [2] = test system: ex vivo human skin explants; experiment: Melanin formation after visible light irradiation on ex vivo human skin; conditions: visible light 480 J/cm2; for % of melanin: Fontana-Masson stain, image analysis
# Method: The below formulations were applied on ex vivo human skin explants from abdominal surgery of a donor with phototype IV (Fitzpatrick scale). 48 h after the formulations were removed with a cotton pad. Skin explants were exposed to visible light (480 J/cm2) with Hydrosun 750 equipped with KG1 filter. Formulations were reapplied afterwards. 48 h later skin sections were prepared and melanin was stained by Fontana-Masson stain. Quantification of melanin was done by image analysis.
compound,measurement,setting,value
"CCCCc1ccc(O)cc1O [4-Butylresorcinol, 4-butyl resorcinol]",Inhibition vs. visible light induced,[1]; concentration 0.0000316 %,58%
same,Melanin,[1]; concentration 0.0000316 %,2.3136 ± 0.6518 µg
same,Inhibition vs. visible light induced,[1]; concentration 0.0001000 %,100%
same,Melanin,[1]; concentration 0.0001000 %,1.8593 ± 0.5365 µg
same,Inhibition vs. visible light induced,[1]; concentration 0.0003160 %,183%
same,Melanin,[1]; concentration 0.0003160 %,0.9849 ± 0.0738 µg
same,inhibition of visible light induced hyperpigmentation (in words),[1],significantly inhibit
"CCCCCCc1ccc(O)cc1O [4-Hexylresorcinol, 4-hexyl resorcinol]",Inhibition vs. visible light induced,[1]; concentration 0.000005 %,91%
same,Melanin,[1]; concentration 0.000005 %,1.9616 ± 0.2899 µg
same,Inhibition vs. visible light induced,[1]; concentration 0.000015 %,102%
same,Melanin,[1]; concentration 0.000015 %,1.8407 ± 0.1988 µg
same,Inhibition vs. visible light induced,[1]; concentration 0.000050 %,166%
same,Melanin,[1]; concentration 0.000050 %,1.1668 ± 0.1312 µg
same,inhibition of visible light induced hyperpigmentation (in words),[1],significantly inhibit
"CC(c1ccccc1)c1ccc(O)cc1O (stereo not shown) [SymWhite ® 377, phenylethyl resorcinol]",Inhibition vs. visible light induced,[1]; concentration 0.000068 %,79%
same,Melanin,[1]; concentration 0.000068 %,0.5688 ± 0.0793 µg
same,Inhibition vs. visible light induced,[1]; concentration 0.000210 %,86%
same,Melanin,[1]; concentration 0.000210 %,0.5280 ± 0.0494 µg
same,Inhibition vs. visible light induced,[1]; concentration 0.000680 %,100%
same,Melanin,[1]; concentration 0.000680 %,0.4598 ± 0.1024 µg
same,inhibition of visible light induced hyperpigmentation (in words),[1],significantly inhibit
same,% of melanin,[2]; 0.2% in formulation applied to skin explants (phototype IV),42.48 ± 2.6%
same,Inhibition vs Placebo,[2]; 0.2% in formulation applied to skin explants,67.5%
same,% of melanin,[2]; 0.5% in formulation applied to skin explants (phototype IV),25.91 ± 1.2%
same,Inhibition vs Placebo,[2]; 0.5% in formulation applied to skin explants,125.7%
